# Laboratory results from paper PMC11595589, “A Pharmacokinetic and Bioavailability Study of Ecklonia cava Phlorotannins Following Intravenous and Oral Administration in Sprague–Dawley Rats” (Marine Drugs, 2024).
# “Also recorded” adds a separate entry of the source. Where two headings read alike, the source gives them in different places.
# Columns and labels:
# [1] = Single-dose pharmacokinetics and bioavailability after oral gavage administration of EK-ECP; assay type: in vivo, male Sprague–Dawley rats; conditions: for Tlast / Tmax: median (minimum-maximum); for fold increase in AUCTlast for a 1:10-fold increase in dose / fold increase in Cmax for a 1:10-fold increase in dose: PO 100 to 1000 mg/kg EK-ECP; for half-life / AUC(0-t) / bioavailability / Cmax / AUC(0-inf) / MRT last / Vd/F / Tmax: male, Sprague-Dawley, rat; for half-life / AUC(0-t): po; for bioavailability: 100 and 1000 mg/kg oral dose of EK-ECP versus IV 10 mg/kg, dose-corrected, read-out: Bioavailability following oral gavage administration; for Vd/F: read-out: Vz/F
# Protocol: EK-ECP was administered to male Sprague–Dawley rats by either IV bolus (Group 1, 10 mg/kg) or oral gavage (Groups 2, 3 or 4, at 10, 100 or 1000 mg/kg, respectively) administration. Blood collection intervals were pre dose (0), and 0.25, 0.5, 1, 2, 4, 6, 8, 12, 24 and 36 h post dose. Plasma samples were analyzed for concentrations of 8,8′-bieckol, dieckol, and PFF-A; all pre-dose sample results were less than the lower limit of quantitation (LLOQ < 1 ng/mL). The time profiles of the plasma concentrations of 8,8′-bieckol, dieckol, and PFF-A in individual animals are illustrated in Figure 4. The mean pharmacokinetic parameters and corresponding coefficient of variation (CV) following IV administration of 10 mg/kg EK-ECP to male rats are illustrated in Table 1. Those following oral administrations of 10, 100 and 1000 mg/kg EK-ECP to male rats are illustrated in Table 2.
# Total of 20 male CD® [Crl:CD®(SD)] rats (approximately 11.5 weeks of age) obtained from Charles River Laboratories (Portage, MI, USA) were used in our study. These included five rats with both jugular and femoral vein cannulations, and 15 rats with jugular vein cannulations. Of the 20 animals received, 16 male rats were placed in the study, comprising four rats with both jugular and femoral vein cannulations, and 12 rats with jugular vein cannulations. The rats were housed in the Mattawan facility of MPI Research Inc (currently Charles River Laboratories, Mattawan, MI, USA). Animal welfare for this study was in compliance with the U.S. Department of Agriculture’s (USDA) Animal Welfare Act (9 CFR Parts 1, 2 and 3). This facility maintained an animal welfare assurance statement with the National Institutes of Health Office of Laboratory Animal Welfare. All procedures were approved before the study by the institutional animal care utilization committee. Animals were individually housed and fed a basal diet of Lab Diet Certified Rodent Diet #5002, PMI Nutrition International, Inc. Food and water was available ad libitum except during fasting periods, when food was withheld, and during any required restraint periods, when both food and water were withheld. Animal rooms were maintained at (20 ± 2) °C and (50 ± 20)% relative humidity with a 12 h light/dark cycle throughout the study.
# For intravenous administration, EK-ECP was dissolved in 70/25/5 (v/v) phosphate-buffered saline (PBS)/propylene glycol/ethanol (pH 5.1 final concentration of 2 mg/mL) and stabilized at room temperature for 24 h. For oral administration, after an amount of EK-ECP appropriate to the final targeted formulation concentrations was weighed and placed in a bottle, a small amount of the vehicle (water for injection) was added and mixed using a vortex mixer and heated to between 60 to 70 °C until homogeneously suspended. Additional amounts of the vehicle were gradually added to yield the targeted EK-ECP concentrations (1, 10, and 100 mg/mL). Dosing occurred within 4 h after preparation completion. The individual constituent doses of dieckol, 8,8′-bieckol, and PFF-A in each dosing formulation were analyzed by RP-HPLC followed by interpolation of the corresponding area% to the calibration curve prepared with known concentrations of isolated standards. The animals were fasted for a minimum of 4 h prior to dosing and through the first 4 h of blood sample collection. Each animal in Group 1 received a single intravenous (IV) dose of the 10 mg/kg EK-ECP. The intravenous doses were administered as a slow bolus injection over 5 min through the femoral vein cannula. The cannula was flushed with approximately 0.3 mL of sterile 0.9% sodium chloride for injection, USP, immediately following dosing. Each animal in Groups 2, 3 and 4 received a single oral (PO) gavage dose of the appropriate test article formulation, as outlined Table 3. Oral gavage dosing formulations were continuously stirred throughout dosing. […]
# [2] = stated in the discussion without data or reference; cited from earlier work
# mouse-model = tested on: mouse-model; parameters: method as in PMID 16042079; conditions: oral administration, mouse model ref 64; cited from earlier work
# gut microbial ecosystem = conditions: hydroethanolic extract of Silvetia compressa ref 73; cited from earlier work
# [3] = Stability at pH 2 by UV–Vis spectroscopy (gastric juice degradation); assay type: physicochemical; conditions: period of at least 5 h, unpublished data
# Excerpt: To address the potential reduction in bioavailability due to degradation by gastric juice, we evaluated the stability of dieckol as a representative compound of phlorotannins at a pH of 2 using UV–Vis spectroscopy.
# [4] = PO 1000 mg/kg EK-ECP (Group 4), PFF-A in a single rat
# [5] = in vivo, PO 100 mg/kg EK-ECP, mean (CV)
# [6] = in vivo, PO 1000 mg/kg EK-ECP, mean (CV)
# [7] = plasma, PO 1000 mg/kg EK-ECP (Group 4), mean (CV), PFF-A N = 1
# [8] = plasma, PO 100 mg/kg EK-ECP, mean (CV)
# [9] = plasma, PO 1000 mg/kg EK-ECP, mean (CV)
smiles,measurement,setting,value
"Oc1cc(O)cc(Oc2c(O)cc(O)c3c2Oc2c(cc(O)c(-c4c(O)cc5c(c4O)Oc4c(Oc6cc(O)cc(O)c6)c(O)cc(O)c4O5)c2O)O3)c1 [8,8′-bieckol]",plasma concentrations quantifiable up to,[1]; PO 100 mg/kg EK-ECP (Group 3),12 h
same,Tlast,[1]; PO 100 mg/kg EK-ECP,8 (8–12) h
same,plasma concentrations quantifiable up to,[1]; [4],36 h
same,Effective T1/2,"[1]; PO 1000 mg/kg EK-ECP, mean (CV), ln(2)·MRTlast, 1000 mg/kg",4.11 (16) h
same,Tlast,[1]; PO 1000 mg/kg EK-ECP,36 (36–36) h
same,fold increase in AUCTlast for a 1:10-fold increase in dose,[1],~84 fold
same,fold increase in Cmax for a 1:10-fold increase in dose,[1],~71 fold
same,half-life,"[1]; in vivo, 100 mg/kg, PO 100 mg/kg EK-ECP, mean (CV), ln(2)·MRTlast, read-out: Effective T1/2 (converted)",2.24 h
same,AUC(0-t),"[1]; in vivo, 100 mg/kg, PO 100 mg/kg EK-ECP, mean (CV), read-out: AUC(0–24h)",41.5 ng·h/mL
same,AUC(0-t),"[1]; in vivo, 100 mg/kg, PO 100 mg/kg EK-ECP, mean (CV), read-out: AUCTlast",37.7 ng·h/mL
same,half-life,"[1]; in vivo, 100 mg/kg, PO 100 mg/kg EK-ECP, mean (CV), read-out: T1/2 (terminal half-life) (converted)",2.95 h
same,half-life,"[1]; in vivo, 1000 mg/kg, PO 1000 mg/kg EK-ECP, mean (CV), ln(2)·MRTlast, read-out: Effective T1/2 (converted)",4.41 h
same,AUC(0-t),"[1]; in vivo, 1000 mg/kg, PO 1000 mg/kg EK-ECP, mean (CV), read-out: AUC(0–24h)",3050 ng·h/mL
same,AUC(0-t),"[1]; in vivo, 1000 mg/kg, PO 1000 mg/kg EK-ECP, mean (CV), read-out: AUCTlast",3170 ng·h/mL
same,half-life,"[1]; in vivo, 1000 mg/kg, PO 1000 mg/kg EK-ECP, mean (CV), read-out: T1/2 (terminal half-life) (converted)",6.63 h
same,bioavailability,[1]; in vivo,0.069 to 0.5%
same,Cmax,"[1]; in vivo, PO 100 mg/kg EK-ECP (Group 3), mean (CV)",11.2 ng/mL
same,AUC(0-inf),[1]; [5],44 ng·h/mL
same,MRT last,[1]; [5],3.23 h
same,Vd/F,[1]; [5],1060 L/kg
same,Tmax,"[1]; in vivo, PO 100 mg/kg EK-ECP",0.25 to 4 h
same,Cmax,"[1]; in vivo, PO 1000 mg/kg EK-ECP (Group 4), mean (CV), PFF-A N = 1",795 ng/mL
same,AUC(0-inf),[1]; [6],3210 ng·h/mL
same,MRT last,[1]; [6],5.93 h
same,Vd/F,[1]; [6],342 L/kg
same,Tmax,"[1]; in vivo, PO 1000 mg/kg EK-ECP",0.5 h
"Oc1cc(O)cc(Oc2c(O)cc(O)c3c2Oc2c(O)cc4oc5c(Oc6cc(O)cc(O)c6)c(O)cc(O)c5c4c2O3)c1 [PFF-A, phlorofucofuroeckol-A]",solubility in water,[2],virtually insoluble in water
same,oral dose with CNS-directed effect (as low as),mouse-model,0.2 mg/kg/bw
same,plasma concentrations,"[1]; PO 100 mg/kg EK-ECP (Group 3), LLOQ 1 ng/mL, 100 mg/kg",below the lower limit of quantitation; also recorded: below the quantifiable limit
same,plasma concentrations quantifiable up to,[1]; [4],1 h
same,Cmax,[1]; [7],1.58 ng/mL
same,Tmax,"[1]; plasma, PO 1000 mg/kg EK-ECP",0.5 h
Oc1cc(O)cc(Oc2c(O)cc(O)c3c2Oc2c(O)cc(Oc4c(O)cc(Oc5c(O)cc(O)c6c5Oc5c(O)cc(O)cc5O6)cc4O)cc2O3)c1 [dieckol],metabolism during fermentation,gut microbial ecosystem,metabolized within eight hours of fermentation
same,stability at pH 2,[3],no significant changes
same,oral dose with CNS-directed effect (as low as),mouse-model,1.0 mg/kg/bw
same,plasma concentrations quantifiable up to,[1]; PO 100 mg/kg EK-ECP (Group 3),8 h
same,Tlast,[1]; PO 100 mg/kg EK-ECP,8 (6–8) h
same,plasma concentrations quantifiable up to,[1]; [4],36 h
same,Tlast,[1]; PO 1000 mg/kg EK-ECP,36 (36–36) h
same,fold increase in AUCTlast for a 1:10-fold increase in dose,[1],~49 fold
same,fold increase in Cmax for a 1:10-fold increase in dose,[1],~41 fold
same,half-life,"[1]; plasma, 100 mg/kg, PO 100 mg/kg EK-ECP, mean (CV), ln(2)·MRTlast, read-out: Effective T1/2 (converted)",2.36 h
same,AUC(0-t),"[1]; plasma, 100 mg/kg, PO 100 mg/kg EK-ECP, mean (CV), read-out: AUC(0–24h)",27.2 ng·h/mL
same,AUC(0-t),"[1]; plasma, 100 mg/kg, PO 100 mg/kg EK-ECP, mean (CV), read-out: AUCTlast",24.3 ng·h/mL
same,half-life,"[1]; plasma, 100 mg/kg, PO 100 mg/kg EK-ECP, mean (CV), read-out: T1/2 (terminal half-life) (converted)",2.76 h
same,half-life,"[1]; plasma, 1000 mg/kg, PO 1000 mg/kg EK-ECP, mean (CV), ln(2)·MRTlast, read-out: Effective T1/2 (converted)",5.31 h
same,AUC(0-t),"[1]; plasma, 1000 mg/kg, PO 1000 mg/kg EK-ECP, mean (CV), read-out: AUC(0–24h)",1130 ng·h/mL
same,AUC(0-t),"[1]; plasma, 1000 mg/kg, PO 1000 mg/kg EK-ECP, mean (CV), read-out: AUCTlast",1200 ng·h/mL
same,half-life,"[1]; plasma, 1000 mg/kg, PO 1000 mg/kg EK-ECP, mean (CV), read-out: T1/2 (terminal half-life) (converted)",6.61 h
same,bioavailability,[1]; plasma,0.06 to 0.23%
same,Cmax,"[1]; plasma, PO 100 mg/kg EK-ECP (Group 3), mean (CV)",6.67 ng/mL
same,AUC(0-inf),[1]; [8],31.4 ng·h/mL
same,MRT last,[1]; [8],3.4 h
same,Vd/F,[1]; [8],1160 L/kg
same,Tmax,"[1]; plasma, PO 100 mg/kg EK-ECP",0.5 to 4 h
same,Cmax,[1]; [7],274 ng/mL
same,AUC(0-inf),[1]; [9],1230 ng·h/mL
same,MRT last,[1]; [9],7.67 h
same,Vd/F,[1]; [9],768 L/kg
same,Tmax,"[1]; plasma, PO 1000 mg/kg EK-ECP",0.5 h
